Earlier results on six compounds are cited in patent publication US20040076968A1, “Method for detecting pre-disposition to hepatotoxicity” (priority 2000, published 2004).

This data set deals with T1, UGT1A6*2 allelic variant (Homo sapiens, UniProt P19224, R184S/T181A).
T1 sequence (P19224 27-532 T181A/R184S): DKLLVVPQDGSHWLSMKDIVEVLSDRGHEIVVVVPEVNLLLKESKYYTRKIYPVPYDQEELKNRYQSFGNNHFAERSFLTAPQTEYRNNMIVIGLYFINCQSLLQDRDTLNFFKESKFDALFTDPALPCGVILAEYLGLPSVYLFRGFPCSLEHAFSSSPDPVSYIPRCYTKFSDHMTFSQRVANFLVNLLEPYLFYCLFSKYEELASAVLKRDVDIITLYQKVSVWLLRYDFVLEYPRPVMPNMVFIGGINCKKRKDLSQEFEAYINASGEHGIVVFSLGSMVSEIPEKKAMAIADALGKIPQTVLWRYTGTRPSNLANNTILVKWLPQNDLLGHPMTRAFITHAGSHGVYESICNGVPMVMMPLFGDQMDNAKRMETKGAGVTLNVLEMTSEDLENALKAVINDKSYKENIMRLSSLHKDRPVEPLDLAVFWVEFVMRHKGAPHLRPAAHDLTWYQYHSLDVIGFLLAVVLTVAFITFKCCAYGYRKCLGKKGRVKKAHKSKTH
To be noted: cited from earlier work; for metabolism compared with wild-type isoenzyme (in words): UGT1A6*2 expressed in COS cells.

For the compound `Oc1cccc2ccccc12` [1-Naphtol], the “metabolism compared with wild-type isoenzyme (in words)” value is listed as “normal levels”. Regarding `Oc1cccc(I)c1` [3iodophenol], the “metabolism compared with wild-type isoenzyme (in words)” value is given as “normal levels”. For the compound `Cc1cc(=O)oc2cc(O)ccc12` [7-hydroxy-4-methylcoumarin], the “metabolism compared with wild-type isoenzyme (in words)” value is on record as “normal levels”. As for `O=c1ccc2ccc(O)cc2o1` [7-hydroxycoumarin], the “metabolism compared with wild-type isoenzyme (in words)” value is on record as “normal levels”. For the compound `COc1ccc(O)c(C(C)(C)C)c1` [butylated hydroxy anisole], the “rate of metabolism relative to the wild-type isoenzyme” value (pH 6.4) is recorded as 27-75%. Take `N[C@@H](Cc1ccc(O)c(O)c1)C(=O)O` [levodopa]: the “activity of UGT1A6 alleles Thr181Ala and Arg184Ser for the substrate” value is reported as “reduced activity”.
